Drawing on patent US9073879B2, “Oxazole derivatives useful as modulators of FAAH” (MERCK SHARP & DOHME CORP., priority 2010, dated 2015), this text covers IC50 for 16 compounds.

Experiment [1] deals with T1, human FAAH (Homo sapiens, UniProt O00519).
T1 construct: The full length FAAH was subcloned into the mammalian expression vector, pcDEF.neo, using XbaI and EcoRI restriction sites; expressed in transfected cells
T1 sequence (O00519 1-579): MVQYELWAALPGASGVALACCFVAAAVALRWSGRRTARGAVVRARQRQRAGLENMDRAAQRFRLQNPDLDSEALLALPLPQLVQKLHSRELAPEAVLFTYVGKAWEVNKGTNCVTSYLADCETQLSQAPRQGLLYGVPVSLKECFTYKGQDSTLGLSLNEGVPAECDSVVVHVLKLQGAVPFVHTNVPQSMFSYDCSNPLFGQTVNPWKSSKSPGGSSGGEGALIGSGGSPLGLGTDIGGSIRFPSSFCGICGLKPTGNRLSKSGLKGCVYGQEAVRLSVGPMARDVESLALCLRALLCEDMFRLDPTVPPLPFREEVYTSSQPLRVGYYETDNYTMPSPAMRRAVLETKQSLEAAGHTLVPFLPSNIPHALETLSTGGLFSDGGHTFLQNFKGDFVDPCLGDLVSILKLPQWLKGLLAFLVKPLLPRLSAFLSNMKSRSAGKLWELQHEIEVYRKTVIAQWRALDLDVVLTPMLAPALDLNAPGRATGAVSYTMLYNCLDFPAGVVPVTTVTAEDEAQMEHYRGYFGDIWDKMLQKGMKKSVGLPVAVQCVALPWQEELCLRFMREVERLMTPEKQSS
As to the kind of experiment: FAAH cell lysate assay (human lysate, FAAH_CHO, AAMCA substrate). The experiment is classed as biochemical. Conditions: lysate of CHO cells expressing human FAAH; read-out: human lysate_IC50. An excerpt:
(§1) To assist in assay development stable cell lines for human, murine and rat full length FAAH were developed. Human FAAH cDNA (Accession No: NM_001441.1) was purchased from Origene (Rockville, Md.). The full length FAAH was subcloned into the mammalian expression vector, pcDEF.neo, using XbaI and EcoRI restriction sites and used for stable cell line generation.
CHO cells expressing FAAH were used to prepare either crude cell lysate or microsome fractions. To harvest cells, tissue culture media was decanted, the monolayer washed three times with Ca^++Mg^++ free PBS and cells recovered after 15 mm in enzyme free dissociation media (Millipore Corp, Billerica, Mass.). Cells were collected by centrifuging at 2000 rpm for 15 min. and the cell pellet re-suspended with 50 mM HEPES (pH 7.4) containing 1 mM EDTA and the protease inhibitors aprotinin (1 mg/ml) and leupeptin (100 μM). The suspension was sonicated at 4° C. and the cell lysate recovered after centrifuging at 12,000×g (14,600 rpm, SS34 rotor) for 20 min at 4° C. to form a crude pellet of cell debris, nuclei, peroxisomes, lysosomes, and mitochondria; the supernatant or cell lysate was used for FAAH enzyme assay. In some cases, microsomes fractions enriched in FAAH were prepared by centrifuging the cell lysate further at 27,000 rpm (100,000×g) in SW28 rotor for 50 minutes at 4° C. The pellet containing FAAH-enriched microsomes was re-suspend in 50 mM HEPES, (pH 7.4) 1 mM EDTA, and any remaining DNA sheared by passage of material through a 23 gauge needle and aliquots of enzyme were store at −80° C. prior to use.
(American Radiolabeled Chemicals; 1 mCi/ml) with FAAH (Life Sciences (1995), 56, 1999-2005 and Journal of Pharmacology and Experimented Therapeutics (1997), 283, 729-734), Analytical. Biochemistry (2003), 318:270-5. In addition, routine assays were performed monitoring hydrolysis of araehidonyl-7-amino-4-methylcoumarin amide (AAMCA) by following increase in fluorescence upon release of 7-amino 4-methyl coumarin (λEX=355 nm, (λEM=460 nm). Analytical. Biochemistry (2005). 343:143-51
(§2) Assays are performed on either cell lysate or microsome fractions prepared as described or in whole cell format employing either the fluorescent substrate AAMCA (Cayman chemical, Ann Arbor, Mich.) or ^3H-anandamide ([ETHANOLAMINE-1-3H] American Radiolabeled Chemicals; 1 mCi/ml). The cell lysate or microsome assay is performed in black PerkinElmer OptiPlates-384F by adding FAAH_CHO (whole cell (shown as human Whole cell or Human WC), cell lysate (shown as human lysate of human LY) or microsome) in assay buffer (50 mM Phosphate, pH 8.0, 1 mM EDTA, 200 mM KCl, 0.2% glycerol, 0.1% fatty acid free BSA) to each well, followed by either DMSO or compound and allowed to incubate at 22-25° C. for fifteen minutes. AAMCA substrate was used to achieve a final concentration of 1 μM and reaction allowed to proceed at room temperature for 1-3 hours. Fluorescent release as a measure of FAAH activity was monitored by reading the plate in an Envision plate Reader (Ex: 360/40 nM; Em: 460/40 nM). Whole cell assay is conducted with cells harvested after rinsing tissue culture flasks three times with Ca^++Mg^++ free PBS, incubating for 10 min in Enzyme free dissociation media and centrifuging for 5 minutes at 1,000 rpm in table top centrifuge. Cells are resuspended in assay buffer at desired cell number in (4×10^4 cells/assay in 96-well format; 1×10^4 cells/assay in 384-well format) and assayed as described.

In experiment [2] the target is T1, human FAAH. As to the kind of experiment: FAAH whole cell assay (human Whole cell, FAAH_CHO, AAMCA substrate). Format: cell-based. The note with it: CHO cells expressing human FAAH, whole cell format; read-out: human cell_IC50.
From the text: as §1
Murine (accession number NM_010173) and Rat FAAH (accession number NM_024132) was amplified by reverse transcriptase polymerase chain reaction (RT-PCR) from brain cDNA (BD Biosciences, San Jose, Calif.) using primers 1 and 2 or primers 1 and 3 respectively (see Table). The resulting PCR product was ligated into pCR4 TOPO and DNA sequence confirmed. The full length murine FAAH was subcloned into the mammalian expression vector, pcDEFneo using either EcoRI (murine) or KpnI and EcoRI (rat) restriction sites. Chinese hamster ovary cells (CHO) were transfected following manufacturers protocol (AMAXA). Forty eight hours post transfection, cells were trypsinized and transferred to 96 well plates in Iscove's DMEM media supplemented with 2 mM Glutamine, 10% fetal calf serum, 1 mg/ml geneticin and HT Supplement (0.1 mM sodium hypoxanthine, 0.016 mM thymidine) in order to isolate single clones. Following selection in geneticin, individual clones were selected and FAAH activity was assessed using a whole cell fluorescent anandamide assay, modified from Ramarao et al (2005). Following removal of tissue culture media cells were dislodged following addition of Cellstripper (Mediatech, Inc. Manassas, Va.) and transferred to 96 well black clear bottom assay plate, centrifuged at 1,000 rpm for 3 mins and media removed and replaced with assay buffer (50 mM Tris pH8.0, 1 mM EDTA, 0.1% fatty acid free BSA). The reaction was initiated by addition of fluorescent substrate, AMC Arachidonoyl Amide (Cayman Chemical, Ann Arbor, Mich.) to 1 μM and reaction allowed to proceed for 2 hours at room temperature. Release of fluorescence was monitored in a CytoFluor Multiplate Reader. Cells expressing the highest amount of FAAH activity were selected for study with FAAH inhibitors.
as §2

With `COC(=O)c1ccc(OCc2nc(-c3ccc(F)cc3)oc2Sc2ccc(Cl)cn2)nc1` [Example B2.9, methyl 6-({5-[(5-chloropyridin-2-yl)sulfanyl]-2-(4-fluorophenyl)-1,3-oxazol-4-yl}methoxy)pyridine-3-carboxylate], the IC50 in experiment [1] came to 2 nM; in experiment [2], 10 nM.

As for `COC(=O)c1ccc(OC(C)c2nc(-c3ccc(F)cc3)oc2Sc2ccc(Cl)cn2)cc1` (stereo not shown) [Example B7.1, methyl 4-(1-{5-[(5-chloropyridin-2-yl)sulfanyl]-2-(4-fluorophenyl)-1,3-oxazol-4-yl}ethoxy)benzoate], the IC50 in experiment [1] came out at 8 nM; in experiment [2] it was 39 nM.

For `CN(C)C(=O)c1ccc(OCc2nc(-c3ccc(F)cc3)oc2Sc2ccc(Cl)cn2)cc1` [Example B2.11.3, 4-({5-[(5-chloropyridin-2-yl)sulfanyl]-2-(4-fluorophenyl)-1,3-oxazol-4-yl}methoxy)-N,N-dimethylbenzamide], the IC50 in experiment [1] amounted to 149 nM; in experiment [2], 1450 nM.

Consider `CNC(=O)c1ccc(OC(C)c2nc(-c3ccc(F)cc3)oc2Sc2ccc(Cl)cn2)cc1` (stereo not shown) [Example B7.2, 4-(1-{5-[(5-chloropyridin-2-yl)sulfanyl]-2-(4-fluorophenyl)-1,3-oxazol-4-yl}ethoxy)-N-methylbenzamide], for which the IC50 is 21 nM in experiment [1] and 80 nM in experiment [2].

In the case of `OC(c1ccc(OCc2nc(-c3ccc(F)cc3)oc2Sc2ccc(Cl)cn2)cc1)C(F)(F)F` (stereo not shown) [Example B2.8, 1-[4-({5-[(5-chloropyridin-2-yl)sulfanyl]-2-(4-fluorophenyl)-1,3-oxazol-4-yl}methoxy)phenyl]-2,2,2-trifluoroethanol], the figures for the IC50 in experiment [1] and in experiment [2] were 130 nM and 513 nM, respectively.

Consider `Fc1ccc(-c2nc(COc3ccc4[nH]ncc4c3)c(Sc3ccc(Cl)cn3)o2)cc1` [Example B2.1, 5-({5-[(5-chloropyridin-2-yl)sulfanyl]-2-(4-fluorophenyl)-1,3-oxazol-4-yl}methoxy)-1H-indazole], for which the IC50 in experiment [1] turned out to be 3 nM; in experiment [2], 20 nM.

Consider `COC(=O)c1ccc(OCc2nc(-c3ccc(F)cc3)oc2Sc2ccc(Cl)cn2)cc1` [Example B2.11, Methyl-4-({5-[(5-chloropyridin-2-yl)sulfanyl]-2-(4-fluorophenyl)-1,3-oxazol-4-yl}methoxy)benzoate], for which the IC50 is 2 nM in experiment [1] and 13 nM in experiment [2].

As to `CC(O)c1ccc(OCc2nc(-c3ccc(F)cc3)oc2Sc2ccc(Cl)cn2)cc1` (stereo not shown) [Example B2.7, 1-[4-({5-[(5-chloropyridin-2-yl)sulfanyl]-2-(4-fluorophenyl)-1,3-oxazol-4-yl}methoxy)phenyl]ethanol], the results for the IC50 in experiment [1] and in experiment [2] were 12 nM and 201 nM, respectively.

On to `CCNC(=O)c1ccc(OCc2nc(-c3ccc(F)cc3)oc2Sc2ccc(Cl)cn2)cc1` [Example B2.11.2, 4-({5-[(5-chloropyridin-2-yl)sulfanyl]-2-(4-fluorophenyl)-1,3-oxazol-4-yl}methoxy)-N-ethylbenzamide], for which the IC50 was 3 nM in experiment [1] and 14 nM in experiment [2].

In the case of `CCNC(=O)c1ccc(NCc2nc(-c3ccc(F)cc3)oc2Sc2ccc(Cl)cn2)nc1` [Example B5.8, 6-[({5-[(5-chloropyridin-2-yl)sulfanyl]-2-(4-fluorophenyl)-1,3-oxazol-4-yl}methyl)amino]-N-ethylpyridine-3-carboxamide], the figures for the IC50 in experiment [1] and in experiment [2] were 17 nM and 42 nM, respectively.

Consider `CSc1ccc(OCc2nc(-c3ccc(F)cc3)oc2Sc2ccc(Cl)cn2)cc1` [Example B2.2, 5-chloro-2-{[2-(4-fluorophenyl)-4-{[4-(methylsulfanyl)phenoxy]methyl}-1,3-oxazol-5-yl]sulfanyl}pyridine], for which the figures for the IC50 in experiment [1] and in experiment [2] were 55 nM and 507 nM, respectively.

For `CNC(=O)c1ccc(OCc2nc(-c3ccc(F)cc3)oc2Sc2ccc(Cl)cn2)cc1` [Example B2.11.4, 4-({5-[(5-chloropyridin-2-yl)sulfanyl]-2-(4-fluorophenyl)-1,3-oxazol-4-yl}methoxy)-N-methylbenzamide], the IC50 in experiment [1] was 3 nM; in experiment [2] it was 5 nM.

For `COC(=O)[C@H]1CC[C@@H](NCc2nc(-c3ccc(F)cc3)oc2Sc2ccc(Cl)cn2)CC1` [Example B5.11, methyl cis-4-[({5-[(5-chloropyridin-2-yl)sulfanyl]-2-(4-fluorophenyl)-1,3-oxazol-4-yl}methyl)amino] cyclohexanecarboxylate], the IC50 in experiment [2] is 50 nM.

In the case of `Clc1ccc(Sc2oc(C3CCOCC3)nc2COc2ccc3[nH]ncc3c2)cc1` [Example B2.17, 5-({5-[(4-chlorophenyl)sulfanyl]-2-(tetrahydro-2H-pyran-4-yl)-1,3-oxazol-4-yl}methoxy)-1H-indazole], the IC50 in experiment [2] was determined as 97 nM.

Regarding `COC(=O)[C@H]1CC[C@H](NCc2nc(C3CCOCC3)oc2Sc2ccc(Cl)cc2)CC1` [Example B5.14, methyl trans-4-[({5-[(4-chlorophenyl)sulfanyl]-2-(tetrahydro-2H-pyran-4-yl)-1,3-oxazol-4-yl}methyl)amino] cyclohexanecarboxylate], the IC50 in experiment [2] was found to be 27 nM.

Turning to `O[C@H]1CC[C@H](NCc2nc(C3CCOCC3)oc2Sc2ccc(Cl)cc2)CC1` [Example B5.13, trans-4-[({5-[(4-chlorophenyl)sulfanyl]-2-(tetrahydro-2H-pyran-4-yl)-1,3-oxazol-4-yl}methyl)amino] cyclohexanol], the IC50 in experiment [2] is 2830 nM.
